Reference: patent publication US7714135B2, “Tetrahydropyridothiophenes for the treatment of proliferative diseases such as cancer” (4SC AG, priority 2005, dated 2010)

How the values were obtained:
[1] = tested on: RKO (RKOp27) human colon adenocarcinoma cells; experiment: Alamar Blue cell viability assay, anti-proliferative/cytotoxic activity on proliferating (uninduced) RKOp27 cells; assay type: cell-based; details: RKOp27 subclone without inducer, 72 hours incubation, read-out: IC50 RKO p27 uninduced (proliferating)
Procedure: The anti-proliferative/cytotoxic activity of the compounds described herein, can be tested on subclones of RKO (RKOp27) human colon adenocarcinoma cells (Schmidt et al., Oncogene 19, 2423-2429; 2000) using the Alamar Blue cell viability assay (described in O'Brien et al. Eur J Biochem 267, 5421-5426, 2000). The compounds are dissolved as 20 mM solutions in dimethylsulfoxide (DMSO) and subsequently diluted in semi-logarithmic steps. DMSO dilutions are further diluted 1:100 into Dulbecco's modified Eagle's medium (DMEM) containing 10% fetal calf serum to a final concentration twice as much as the final concentration in the test. RKO subclones are seeded into 96 well flat bottom plates at a density of 4000 cells per well in a volume of 50 μl per well. 24 hours after seeding the 50 μl each of the compound dilutions in DMEM medium are added into each well of the 96 Well plate. Each compound dilution is tested as quadruplicates. Wells containing untreated control cells are filled with 50 μl DMEM medium containing 1% DMSO. The cells are then incubated with the substances for 72 hours at 37° C. in a humidified atmosphere containing 5% carbon dioxide. To determine the viability of the cells, 10 μl of an Alamar Blue solution (Biosource) are added and the fluorescence is measured at an extinction of 544 nm and an emission of 590 nm. For the calculation of the cell viability the emission value from untreated cells is set as 100% viability and the emission rates of treated cells are set in relation to the values of untreated cells. Viabilities are expressed as % values.
The corresponding IC50 values of the compounds for anti-proliferative/cytotoxic activity are determined from the concentration-effect curves.
Representative IC50 values for anti-proliferation/cytotoxicity determined in the mentioned assay follow from the following table A, in which the numbers of the compound correspond to the numbers of the examples.

[2] = tested on: RKO colon adenocarcinoma cells (RKOp27) arrested by the expression of ectopic p27Kip1; experiment: Alamar Blue cell viability assay on RKOp27 cells arrested by Ponasterone A-induced p27Kip1 expression (cell cycle specific mode of action); assay type: cell-based; details: Homo sapiens, RKOp27 subclone induced with 10 μM Ponasterone A, 72 hours incubation, read-out: IC50 RKO p27 induced (arrested)
Procedure: To determine the cell cycle specific mode of action, subclones of RKO colon adenocarcinoma cells (RKOp27 or RKOp21 as described by Schmidt et al. in Oncogene 19, 2423-2429; 2000) are seeded into 96 well flat bottom plates at a density of 16000 cells per well in a volume of 50 μl per well in DMEM growth medium with 10% FCS containing 10 μM Ponasterone A. 24 hours after seeding the 50 μl each of the compound dilutions in DMEM medium are added into each well of the 96 Well plate. Each compound dilution is tested as quadruplicates. Wells containing untreated control cells are filled with 50 μl DMEM medium containing 1% DMSO. The cells are then incubated with the substances for 72 hours at 37° C. in a humidified atmosphere containing 5% carbon dioxide. To determine the viability of the cells, 10 μl of an Alamar Blue solution (Biosource) are added and the fluorescence was measured at an extinction of 544 nm and an emission of 590 nm. For the calculation of the cell viability the emission value from untreated cells is set as 100% viability and the emission rates of treated cells are set in relation to the values of untreated cells. Viabilities are expressed as % values. Viability is compared of proliferating cells grown in the absence of the inducer Ponasterone A, versus viability of cells arrested by the expression of ectopic p27Kip1 induced by Ponasterone A.

| SMILES | IC50 [1] [µM] | IC50 [2] [µM] |
| --- | --- | --- |
| CCOC(=O)N1CCc2c(sc(NC(=O)CC(C)c3ccccc3)c2C#N)C1 (racemic) [Example 4, 3-Cyano-2-((RS)-3-phenyl-butanoylamino)-4,7-dihydro-5H-thieno[2,3-c]pyridine-6-carboxylic acid ethyl ester] | ≤ 0.3 | > 100 |
| CCOC(=O)N1CCc2c(sc(NC(=O)CC(C)c3cccnc3)c2C#N)C1 (racemic) [Example 49, 3-Cyano-2-((RS)-3-pyridin-3-yl-butanoylamino)-4,7-dihydro-5H-thieno[2,3-c]pyridine-6-carboxylic acid ethyl ester] | 0.3 to 2 | > 100 |
| CC(CC(=O)Nc1sc2c(c1C#N)CCN(C(=O)OCCc1ccncc1)C2)c1cccnc1 (racemic) [Example 76, 3-Cyano-2-((RS)-3-pyridin-3-yl-butanoylamino)-4,7-dihydro-5H-thieno[2,3-c]pyridine-6-carboxylic acid 2-pyridin-4-yl-ethyl ester] | 0.3 to 2 | ≥ 40 |
| CC(CC(=O)Nc1sc2c(c1C#N)CCN(C(=O)OCCc1cccnc1)C2)c1ccccc1 (racemic) [Example 92, 3-Cyano-2-((RS)-3-phenyl-butanoylamino)-4,7-dihydro-5H-thieno[2,3-c]pyridine-6-carboxylic acid 2-pyridin-3-yl-ethyl ester] | ≤ 0.3 | > 100 |
| CC(CC(=O)Nc1sc2c(c1C#N)CCN(C(=O)OCCn1ccnc1)C2)c1ccccc1 (racemic) [Example 96, 3-Cyano-2-((RS)-3-phenyl-butanoylamino)-4,7-dihydro-5H-thieno[2,3-c]pyridine-6-carboxylic acid 2-imidazol-1-yl-ethyl ester] | ≤ 0.3 | > 100 |
| CCOC(=O)N1CCc2c(sc(NC(=O)CCc3ccccc3)c2C#N)C1 [Example 1, 3-Cyano-2-(3-phenyl-propanoylamino)-4,7-dihydro-5H-thieno[2,3-c]pyridine-6-carboxylic acid ethyl ester] | ≤ 0.3 | > 100 |
| CCOC(=O)N1CCc2c(sc(NC(=O)C3CC3c3ccccc3)c2C#N)C1 (centres unmarked) [Example 2, 3-Cyano-2-{[1-(2-phenyl-cyclopropyl)-methanoyl]-amino}-4,7-dihydro-5H-thieno[2,3-c]pyridine-6-carboxylic acid ethyl ester] | ≤ 0.3 | > 100 |
| CCOC(=O)N1CCc2c(sc(NC(=O)CCc3ccccc3C)c2C#N)C1 [Example 3, 3-Cyano-2-(3-o-tolyl-propanoylamino)-4,7-dihydro-5H-thieno[2,3-c]pyridine-6-carboxylic acid ethyl ester] | ≤ 0.3 | > 100 |
| CCOC(=O)N1CCc2c(sc(NC(=O)CCc3ccco3)c2C#N)C1 [Example 5, 3-Cyano-2-(3-furan-2-yl-propanoylamino)-4,7-dihydro-5H-thieno[2,3-c]pyridine-6-carboxylic acid ethyl ester] | ≤ 0.3 | > 100 |
| CCOC(=O)N1CCc2c(sc(NC(=O)C(C)Cc3ccccc3)c2C#N)C1 (centres unmarked) [Example 6, 3-Cyano-2-(2-methyl-3-phenyl-propanoylamino)-4,7-dihydro-5H-thieno[2,3-c]pyridine-6-carboxylic acid ethyl ester] | 0.3 to 2 | > 100 |
| CCOC(=O)N1CCc2c(sc(NC(=O)CCc3cccs3)c2C#N)C1 [Example 7, 3-Cyano-2-(3-thiophen-2-yl-propanoylamino)-4,7-dihydro-5H-thieno[2,3-c]pyridine-6-carboxylic acid ethyl ester] | ≤ 0.3 | > 100 |
| CCOC(=O)N1CCc2c(sc(NC(=O)CCc3ccc(F)cc3)c2C#N)C1 [Example 8, 3-Cyano-2-(3-(4-fluoro-phenyl)-propanoylamino)-4,7-dihydro-5H-thieno[2,3-c]pyridine-6-carboxylic acid ethyl ester] | ≤ 0.3 | > 100 |
| CCOC(=O)N1CCc2c(sc(NC(=O)CCc3cccnc3)c2C#N)C1 [Example 9, 3-Cyano-2-(3-pyridin-3-yl-propanoylamino)-4,7-dihydro-5H-thieno[2,3-c]pyridine-6-carboxylic acid ethyl ester] | 0.3 to 2 | > 100 |
| CCOC(=O)N1CCc2c(sc(NC(=O)CCc3ccccc3F)c2C#N)C1 [Example 10, 3-Cyano-2-(3-(2-fluoro-phenyl)-propanoylamino)-4,7-dihydro-5H-thieno[2,3-c]pyridine-6-carboxylic acid ethyl ester] | ≤ 0.3 | > 100 |
| CCOC(=O)N1CCc2c(sc(NC(=O)CCc3cc(C)c(C)o3)c2C#N)C1 [Example 11, 3-Cyano-2-[3-(4,5-dimethyl-furan-2-yl)-propanoylamino]-4,7-dihydro-5H-thieno[2,3-c]pyridine-6-carboxylic acid ethyl ester] | ≤ 0.3 | > 100 |
| CCOC(=O)N1CCc2c(sc(NC(=O)CCc3cccc(F)c3)c2C#N)C1 [Example 12, 3-Cyano-2-[3-(3-fluoro-phenyl)-propanoylamino]-4,7-dihydro-5H-thieno[2,3-c]pyridine-6-carboxylic acid ethyl ester] | ≤ 0.3 | > 100 |
| CCOC(=O)N1CCc2c(sc(NC(=O)CCc3ccccc3Cl)c2C#N)C1 [Example 13, 2-[3-(2-Chloro-phenyl)-propanoylamino]-3-cyano-4,7-dihydro-5H-thieno[2,3-c]pyridine-6-carboxylic acid ethyl ester] | ≤ 0.3 | > 100 |
| CCOC(=O)N1CCc2c(sc(NC(=O)CCc3ccc(C)cc3)c2C#N)C1 [Example 14, 3-Cyano-2-(3-p-tolyl-propanoylamino)-4,7-dihydro-5H-thieno[2,3-c]pyridine-6-carboxylic acid ethyl ester] | ≤ 0.3 | > 100 |
| CC(C)(C)OC(=O)N1CCc2c(sc(NC(=O)CCc3cccnc3)c2C#N)C1 [Example 15, 3-Cyano-2-(3-pyridin-3-yl-propanoylamino)-4,7-dihydro-5H-thieno[2,3-c]pyridine-6-carboxylic acid tert-butyl ester] | ≤ 0.3 | > 100 |
| CCOC(=O)N1CCc2c(sc(NC(=O)CCc3cccc(Cl)c3)c2C#N)C1 [Example 16, 2-[3-(3-Chloro-phenyl)-propanoylamino]-3-cyano-4,7-dihydro-5H-thieno[2,3-c]pyridine-6-carboxylic acid ethyl ester] | ≤ 0.3 | > 100 |
| CCOC(=O)N1CCc2c(sc(NC(=O)CCc3ccc(Cl)cc3)c2C#N)C1 [Example 17, 2-[3-(4-Chloro-phenyl)-propanoylamino]-3-cyano-4,7-dihydro-5H-thieno[2,3-c]pyridine-6-carboxylic acid ethyl ester] | ≤ 0.3 | > 100 |
| CCOC(=O)N1CCc2c(sc(NC(=O)CCc3cccc(C)c3)c2C#N)C1 [Example 18, 3-Cyano-2-(3-m-tolyl-propanoylamino)-4,7-dihydro-5H-thieno[2,3-c]pyridine-6-carboxylic acid ethyl ester] | ≤ 0.3 | > 100 |
| CCOC(=O)N1CCc2c(sc(NC(=O)CCC3CCCCC3)c2C#N)C1 [Example 19, 3-Cyano-2-(3-cyclohexyl-propanoylamino)-4,7-dihydro-5H-thieno[2,3-c]pyridine-6-carboxylic acid ethyl ester] | 0.3 to 2 | > 100 |
| CCOC(=O)N1CCc2c(sc(NC(=O)CCn3nccc3C)c2C#N)C1 [Example 20, 3-Cyano-2-[3-(5-methyl-pyrazol-1-yl)-propanoylamino]-4,7-dihydro-5H-thieno[2,3-c]pyridine-6-carboxylic acid ethyl ester] | 0.3 to 2 | > 100 |
| CCOC(=O)N1CCc2c(sc(NC(=O)CCC3CCCO3)c2C#N)C1 (centres unmarked) [Example 21, 3-Cyano-2-(3-tetrahydro-furan-2-yl-propanoylamino)-4,7-dihydro-5H-thieno[2,3-c]pyridine-6-carboxylic acid ethyl ester] | ≤ 0.3 | > 100 |
